This is an account of results in patent US20240091390A1, “IMPROVED CHOLECYSTOKININ-2 RECEPTOR (CCK2R) TARGETING FOR DIAGNOSIS AND THERAPY” (Medizinische Universität Innsbruck, priority 2021, published 2024).

The conditions of series [1]: cited from earlier work.
A short description of series [2]: Stability against enzymatic degradation in vivo (radio-HPLC of blood). Details: species or system BALB/c mice. Particulars: ^177Lu-labelled, 30 min p.i. Here is the method: To further characterise the stability of the radiolabelled peptidomimetic in vivo, metabolic studies were carried out in 5-6-week-old female BALB/c mice (Charles River, Sulzfeld, Germany) injected intravenously with ^177Lu-labelled and ^68Ga-labelled peptidomimetics. All animal experiments were conducted in compliance with the Austrian animal protection laws and with the approval of the Austrian Ministry of Science. To allow monitoring of the metabolites by radio-HPLC, mice were injected with a higher amount of radioactivity (20-40 MBq ^177Lu, corresponding to ˜1 nmol total peptide, or ˜10 MBq ^68Ga, corresponding to ˜1 nmol total peptide) through a lateral tail vein and euthanized by cervical dislocation at selected time points p.i. […] A sample of blood was collected and the degradation was assessed by radio-HPLC. For this purpose blood samples were precipitated with ACN, centrifuged at 2000 g for 2 min and diluted with water (1:1/v:v) prior to HPLC analysis using a Dionex chromatography system including radiodetection and UV detection equipped with a Phenomenex Jupiter Proteo C12 column (90 Å, 4 μm, 250×4.6 mm) column using a water/acetonitrile/0.1% TFA gradient system.

For series [3] the following is noted: 10 min after intravenous injection; cited from earlier work.

For “[1,4,7,10-tetraazacyclodocecan-1,4,7,10-tetraacetic acid^0,D-Glu^1,DesGlu^2-6]minigastrin [^111In-DOTA-MG11]”, the “biological half-life in vivo” value in series [1] is “below five minutes”.
In the case of `CSCC[C@H](NC(=O)[C@H](Cc1c[nH]c2ccccc12)NC(=O)CNC(=O)[C@H](Cc1ccc(O)cc1)NC(=O)[C@H](C)NC(=O)[C@@H](CCC(=O)O)NC(=O)[C@@H](CCC(=O)O)NC(=O)[C@@H](CCC(=O)O)NC(=O)[C@@H](CCC(=O)O)NC(=O)[C@@H](CCC(=O)O)NC(=O)[C@@H](CCC(=O)O)NC(=O)CN1CCN(CC(=O)O)CCN(CC(=O)O)CCN(CC(=O)O)CC1)C(=O)N[C@@H](CC(=O)O)C(=O)N[C@@H](Cc1ccccc1)C(N)=O` [^177Lu-PP-F11, metal not drawn], in series [2], the “percentage of intact radioligand present in the blood” value is recorded as 5.5%. In addition, in series [3], the “intact peptide in urine and blood” value is on record as “no intact peptide could be found”.
